What follows are molecules tested against T1, Toll-like receptor 7 (Homo sapiens, UniProt Q9NYK1) (assay: HEK-Blue™ TLR7 cells were added to each well of a 384-well tissue-culture plate (15,000 cells per well) and incubated 16-18 h at 37° C., 5% CO2. Compounds (100 nl) were dispensed into wells containing the HEK-Blue™ TLR cells and the treated cells were incubated at 37° C., 5% CO2. After 18 h treatment ten microliters of freshly-prepared Quanti-Blue™ reagent (Invivogen) was added to each well, incubated for 30 min (37° C., 5% CO2) and SEAP levels measured using an Envision plate reader (OD=620 nm).).
T1 sequence (Q9NYK1 whole entry): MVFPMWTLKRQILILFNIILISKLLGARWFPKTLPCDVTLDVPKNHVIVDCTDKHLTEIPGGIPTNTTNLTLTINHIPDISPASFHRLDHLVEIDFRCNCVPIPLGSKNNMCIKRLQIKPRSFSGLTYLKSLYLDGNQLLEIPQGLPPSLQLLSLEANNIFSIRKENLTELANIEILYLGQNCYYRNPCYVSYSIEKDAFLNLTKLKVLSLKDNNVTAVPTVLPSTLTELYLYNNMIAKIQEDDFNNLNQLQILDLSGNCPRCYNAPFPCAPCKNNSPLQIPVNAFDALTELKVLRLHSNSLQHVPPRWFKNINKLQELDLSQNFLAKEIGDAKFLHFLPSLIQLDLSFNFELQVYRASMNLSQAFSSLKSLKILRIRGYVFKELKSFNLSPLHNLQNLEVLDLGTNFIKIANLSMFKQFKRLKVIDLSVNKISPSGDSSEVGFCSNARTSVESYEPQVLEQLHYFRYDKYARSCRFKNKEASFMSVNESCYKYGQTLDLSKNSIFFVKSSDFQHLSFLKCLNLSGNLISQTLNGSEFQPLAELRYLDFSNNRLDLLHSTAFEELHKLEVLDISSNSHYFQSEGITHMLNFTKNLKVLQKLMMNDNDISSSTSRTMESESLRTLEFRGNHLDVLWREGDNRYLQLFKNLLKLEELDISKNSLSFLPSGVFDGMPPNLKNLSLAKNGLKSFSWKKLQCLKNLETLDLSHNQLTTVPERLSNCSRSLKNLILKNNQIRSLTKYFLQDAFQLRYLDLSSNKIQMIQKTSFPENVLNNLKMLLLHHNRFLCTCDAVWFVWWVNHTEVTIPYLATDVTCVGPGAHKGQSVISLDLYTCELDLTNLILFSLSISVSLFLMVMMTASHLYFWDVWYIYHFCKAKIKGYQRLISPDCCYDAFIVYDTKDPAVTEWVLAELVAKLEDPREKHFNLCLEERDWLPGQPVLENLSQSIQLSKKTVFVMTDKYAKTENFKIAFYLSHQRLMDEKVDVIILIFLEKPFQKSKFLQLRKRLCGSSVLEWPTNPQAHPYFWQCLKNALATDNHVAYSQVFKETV

Compound | EC50 [nM]
CCCCOc1nc(N)c2nc(O)n(Cc3ccc(Nc4ccc(CNCCO)cc4)nc3)c2n1 | 5.8
CCCCOc1nc(N)c2nc(O)n(Cc3ccc(Oc4ccc(CN5CCN(C)CC5)nc4)nc3)c2n1 | 1.77
CCCCOc1nc(N)c2nc(O)n(Cc3ccc(Oc4ccc(CNC5CC(F)(F)C5)cc4)nc3)c2n1 | 1.3
CCCCOc1nc(N)c2nc(O)n(Cc3ccc(Oc4ccc(CNC5CCCC5)cc4)nc3)c2n1 | 1.6
CCCCOc1nc(N)c2nc(O)n(Cc3cccc(Oc4cccc(CNC5CC(F)(F)C5)c4)c3)c2n1 | 525
CCCCOc1nc(N)c2nc(O)n(Cc3ccc(Oc4ccc(CNCC(C)C)cc4)c(F)c3)c2n1 | 0.45
CCCCOc1nc(N)c2nc(O)n(Cc3cccc(Oc4cccc(CNC)c4)c3)c2n1 | 455
CCCCOc1nc(N)c2nc(O)n(Cc3ccc(Oc4ccc(CN5CCOCC5)nc4)nc3)c2n1 | 0.89
CCCCOc1nc(N)c2nc(O)n(Cc3ccc(Oc4ccc(CNC5C6CC5C6)cc4)nc3)c2n1 (stereo not drawn) | 1.3
CCCCOc1nc(N)c2nc(O)n(Cc3ccc(Oc4ccc(CNC5CCC5)cc4)cc3)c2n1 | 2.6
CCCCOc1nc(N)c2nc(O)n(Cc3ccc(Oc4ccc(CNC)cc4)nc3)c2n1 | 1.2
CCCCOc1nc(N)c2nc(O)n(Cc3ccc(Oc4ccc(CNC5CCC5)cc4)nc3)c2n1 | 0.91
CCCCOc1nc(N)c2nc(O)n(Cc3ccc(Oc4ccc(CNCc5ccccc5)cc4)nc3)c2n1 | 5.3
CCCCOc1nc(N)c2nc(O)n(Cc3cccc(Oc4cccc(CNC5CCC5)c4)c3)c2n1 | 435
CCCCOc1nc(N)c2nc(O)n(Cc3ccc(Oc4ccc(CNCC(C)C)nc4)nc3)c2n1 | 2.22
CCCCOc1nc(N)c2nc(O)n(Cc3ccc(Oc4ccc(CN5CCN(C)CC5)cc4)c(F)c3)c2n1 | 2.9
CCCCOc1nc(N)c2nc(O)n(Cc3cccc(Oc4cccc(CNCCS(C)(=O)=O)c4)c3)c2n1 | 154
CCCCOc1nc(N)c2nc(O)n(Cc3ccc(Oc4ccc(CNCCO)cc4)c(F)c3)c2n1 | 0.46
CCCCOc1nc(N)c2nc(O)n(Cc3ccc(Oc4ccc(CNCC5CC5)cc4)nc3)c2n1 | 1.1
CCCCOc1nc(N)c2nc(O)n(Cc3ccc(Oc4cccc(CNC5CCC5)n4)cc3)c2n1 | 2.51

Compound | EC50 [nM]
CCCCOc1nc(N)c2nc(O)n(Cc3ccc(Nc4ccc(CN5CCCC5)cc4)nc3)c2n1 | 1.56
CCCCOc1nc(N)c2nc(O)n(Cc3ccc(Oc4ccc(CNCCOC)nc4)nc3)c2n1 | 0.96
CCCCOc1nc(N)c2nc(O)n(Cc3ccc(Oc4ccc(CNCCO)nc4)nc3)c2n1 | 1.6
CCCCOc1nc(N)c2nc(O)n(Cc3ccc(Nc4ccc(CNCCOC)cc4)nc3)c2n1 | 1.19
CCCCOc1nc(N)c2nc(O)n(Cc3ccc(Nc4ccc(CNCCS(C)(=O)=O)cc4)nc3)c2n1 | 0.374
CCCCOc1nc(N)c2nc(O)n(Cc3ccc(Oc4ccc(CNC5CCC5)nc4)nc3)c2n1 | 2.07
CCCCOc1nc(N)c2nc(O)n(Cc3ccc(Nc4ccc(CNC5CCOCC5)cc4)nc3)c2n1 | 4.3
CCCCOc1nc(N)c2nc(O)n(Cc3ccc(Oc4ccc(CNC5CCOCC5)cc4)c(F)c3)c2n1 | 1.2
CCCCOc1nc(N)c2nc(O)n(Cc3ccc(Oc4ccc(CNC5CC5)cc4)cc3)c2n1 | 2.1
CCCCOc1nc(N)c2nc(O)n(Cc3ccc(Oc4ccc(CNC5COC5)cc4)cc3)c2n1 | 1.7
CCCCOc1nc(N)c2nc(O)n(Cc3ccc(Oc4ccc(CN5CCOCC5)cc4)c(F)c3)c2n1 | 3.9
CCCCOc1nc(N)c2nc(O)n(Cc3ccc(Oc4ccc(CN5CCC5)cc4)c(F)c3)c2n1 | 1.12
CCCCOc1nc(N)c2nc(O)n(Cc3ccc(Oc4ccc(CNC5CCC5)cc4)c(F)c3)c2n1 | 1.38
CCCCOc1nc(N)c2nc(O)n(Cc3cccc(Oc4cccc(CN5CCNCC5)c4)c3)c2n1 | 942
CCCCOc1nc(N)c2nc(O)n(Cc3ccc(Oc4ccc(CO)cc4)nc3)c2n1 | 12
CCCCOc1nc(N)c2nc(O)n(Cc3ccc(Oc4ccc(CNC(C)C)cc4)nc3)c2n1 | 1.1
CCCCOc1nc(N)c2nc(O)n(Cc3ccc(Nc4ccc(CNCC(C)C)cc4)nc3)c2n1 | 7.5
CCCCOc1nc(N)c2nc(O)n(Cc3ccc(Oc4ccc(CNCC(F)F)cc4)nc3)c2n1 | 2.9
CCCCOc1nc(N)c2nc(O)n(Cc3cccc(Oc4cccc(CNCCC#N)c4)c3)c2n1 | 279
CCCCOc1nc(N)c2nc(O)n(Cc3ccc(Oc4ccc(CNCCC#N)cc4)nc3)c2n1 | 0.35

Compound | EC50 [nM]
CCCCOc1nc(N)c2nc(O)n(Cc3ccc(Oc4ccc(CNCC(F)F)nc4)nc3)c2n1 | 1.8
CCCCOc1nc(N)c2nc(O)n(Cc3ccc(Oc4ccc(CNCc5ccccc5)cc4)cc3)c2n1 | 13
CCCCOc1nc(N)c2nc(O)n(Cc3ccc(Nc4ccc(CNCC(F)F)cc4)nc3)c2n1 | 7.46
CCCCOc1nc(N)c2nc(O)n(Cc3ccc(Oc4ccc(CNC5COC5)cc4)nc3)c2n1 | 0.7
CCCCOc1nc(N)c2nc(O)n(Cc3ccc(Oc4ccc(CNCCOC)cc4)c(F)c3)c2n1 | 1.14
CCCCOc1nc(N)c2nc(O)n(Cc3ccc(Oc4ccc(CNCCO)cc4)cc3)c2n1 | 1.4
CCCCOc1nc(N)c2nc(O)n(Cc3ccc(Oc4ccc(CNCCS(C)(=O)=O)cc4)nc3)c2n1 | 1.8
CCCCOc1nc(N)c2nc(O)n(Cc3cccc(Oc4cccc(CNC5COC5)c4)c3)c2n1 | 403
CCCCOc1nc(N)c2nc(O)n(Cc3ccc(Oc4cccc(CNCC(C)C)n4)cc3)c2n1 | 2.4
CCCCOc1nc(N)c2nc(O)n(Cc3ccc(Nc4ccc(CNC5CCC5)cc4)nc3)c2n1 | 1.23
CCCCOc1nc(N)c2nc(O)n(Cc3ccc(Oc4ccc(CNCC(C)C)cc4)nc3)c2n1 | 0.54
CCCCOc1nc(N)c2nc(O)n(Cc3ccc(Oc4cccc(CNCCC#N)n4)cc3)c2n1 | 3.57
CCCCOc1nc(N)c2nc(O)n(Cc3cccc(Oc4cccc(CNCCO)c4)c3)c2n1 | 375
CCCCOc1nc(N)c2nc(O)n(Cc3ccc(Oc4ccc(CNC5CCOCC5)nc4)nc3)c2n1 | 1.12
CCCCOc1nc(N)c2nc(O)n(Cc3ccc(Oc4ccc(CNCC(F)F)cc4)c(F)c3)c2n1 | 1.8
CCCCOc1nc(N)c2nc(O)n(Cc3ccc(Nc4ccc(CNCC(C)(C)O)cc4)nc3)c2n1 | 3.2
CCCCOc1nc(N)c2nc(O)n(Cc3ccc(Oc4cccc(CNC5COC5)n4)cc3)c2n1 | 4.27
CCCCOc1nc(N)c2nc(O)n(Cc3ccc(Nc4ccc(CN5CCN(C)CC5)cc4)nc3)c2n1 | 4.2
